The text below walks through data of patent US8507724B2 (priority 2008, dated 2013).

For the test, the target named is T1, α1 homomeric glycine receptors (Rattus norvegicus, UniProt P07727).
T1 construct: expressed in transfected cells; host or cells: HEK 293 (transient transfection by electroporation, cDNA in pCIS2 vector)
T1 sequence (P07727 29-457): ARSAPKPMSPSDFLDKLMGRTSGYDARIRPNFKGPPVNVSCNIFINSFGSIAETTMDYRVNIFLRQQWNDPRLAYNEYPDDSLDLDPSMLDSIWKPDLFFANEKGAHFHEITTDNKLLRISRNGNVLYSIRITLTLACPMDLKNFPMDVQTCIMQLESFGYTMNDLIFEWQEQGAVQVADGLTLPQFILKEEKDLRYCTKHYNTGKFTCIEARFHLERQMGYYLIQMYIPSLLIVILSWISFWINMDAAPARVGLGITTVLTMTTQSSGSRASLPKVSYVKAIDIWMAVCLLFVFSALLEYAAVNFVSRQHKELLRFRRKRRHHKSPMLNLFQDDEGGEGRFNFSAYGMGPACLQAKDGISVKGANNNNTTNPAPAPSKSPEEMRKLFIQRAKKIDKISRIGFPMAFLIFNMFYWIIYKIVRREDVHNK
The test can be described thus: Whole-cell patch-clamp, Cl- current activated via α1 homomeric glycine receptors in transfected HEK 293 cells. It is filed as cell-based. How it is done: Cells were cultured in Dulbecco's modified Eagle's medium (DMEM, Biochrom, Berlin, Germany), supplemented with 10% fetal calf serum (FCS, Biochrom, Berlin, Germany), 100 U ml^−1 penicillin and 100 μg ml^−1 streptomycin at 37° C. in a 5% CO2/air incubator. […] For co-transfection of rat α1 glycine receptor subunits, the corresponding cDNA, each subcloned in the pCIS2 expression vector (Invitrogen, San Diego, USA), was added to the suspension. To visualize transfected cells, they were co-transfected with cDNA of green fluorescent protein (GFP 10 μg ml^−1). For transfection, we used an electroporation device by EquiBio (Kent, UK).
The compounds according to the present invention under investigation were prepared as 1 M stock solution in ethanol, light-protected and stored in glass vessels at −20° C. Concentrations were calculated from the amount injected into the glass vials. Drug-containing vials were vigorously vortexed for 60 min. Glycine and picrotoxin were dissolved directly in bath solution.
Patch electrodes contained [mM] KCl 140, MgCl2 2, EGTA 11, HEPES 10, glucose 10; the bath solution contained [mM]
A tight electrical seal of several GΩ formed between the cell membrane and a patch-clamp electrode allows inward currents due to agonist-induced channel activation to resolve in the pA range. Electrical resistance of the pipettes was around 5 MΩ, corresponding to a total access resistance in the whole-cell configuration of about 10 MΩ. The compounds according to the present invention under investigation were applied to the cells via a smooth liquid filament achieved with a single outflow (glass tubing 0.15 mm inner diameter) connected to a piezo crystal. The cells were placed at the interface between this filament and the continuously flowing background solution. When a voltage pulse was applied to the piezo, the tube was moved up and down onto or away from the cell under investigation. Correct positioning of the cell in respect to the liquid filament was ensured applying a saturating (1000 μM) glycine pulse before and after each test experiment. Care was taken to ensure that the amplitude and the shape of the glycine-activated current had stabilized before proceeding with the experiment. Test solution and glycine (1000 μM) were applied via the same glass-polytetrafluoroethylen perfusion system, but from separate reservoirs. The contents of these reservoirs were mixed at a junction immediately before entering the superfusion chamber.
The compounds under test were applied alone in order to determine their direct agonistic effects. A new cell was used for each compound and each protocol, at least three different experiments were performed for each setting. The amount of the diluent ethanol corresponding to the highest compound concentration used was 34 000 μM.
For data acquisition and further analysis the inventors used the Axopatch 200B amplifier in combination with pClamp6 software (Axon Instruments, Union City, Calif., USA). Currents were filtered at 2 kHz. Fitting procedures were performed using a non-linear least-squares Marquardt-Levenberg algorithm. Details are provided in the appropriate figure legends or in the results section.
Activated currents were normalized to their own maximum response. The dose-response-curves were fitted according to (Inorm=[1+(EC50/[C])^nH]^−1), where Inorm is the current induced directly by the respective concentration [C] of the compound, normalized to the maximum inward current.
(Patch clamp records ionic current or voltage across a cell membrane.)

Where [1] appears, read: EC50 (nM), α1 homomer, initial tests, Hill fit to normalised response, rat α1 receptors in HEK 293.
[2] abbreviates: initial tests, Hill fit to normalised response.

As usually defined, the EC50 is the concentration needed to bring the measured effect to its halfway point. Regarding `CC(C)c1cc(-c2ccc(-c3ccccc3)cc2)cc(C(C)C)c1O` [4-(p-biphenyl)-propofol], under setting [1], the EC50 turned out to be 0.8 ± 0.2 nM. The “nH (Hill coefficient), α1 homomer” value under setting [2] worked out at 2.6 ± 1.2.

Take `CC(C)c1cc(-c2ccc(C(C)(C)C)cc2)cc(C(C)C)c1O` [4-(p-tert-butylphenyl)-propofol]: the EC50 under setting [1] came to 0.05 ± 0.03 nM. Also, under setting [2], the “nH (Hill coefficient), α1 homomer” value came out at 2.0 ± 0.4.

On to `CC(C)c1cc(NC(=O)C(F)(F)F)cc(C(C)C)c1O` [4-trifluoroacetamide-propofol, 4-Trifluoroacetamide-propofol], for which the EC50 amounted to 0.3 nM under setting [1] and 0.11 nM (EC50, further series of tests (later tests)).
